In series [1] the target is Sphingosine 1-phosphate receptor 1 (Homo sapiens, UniProt P21453). The series is described as follows: Inhibition of S1PR1 (unknown origin) expressed in CHOK1 cells after 90 mins by beta-arresting recuitment assay. It counts as functional, cell-based.
Series [2] in a line: Drug level in human plasma treated with (5-methyl-2-oxo-1,3-dioxol-4-yl)methyl 4-((3-(2-hydroxyphenyl)-4-oxo-2-(propylimino)thiazolidin-5-ylidene)methyl)benzoate at 37 degC. It counts as ADME, cell-free.
The nature of series [3]: Drug metabolism in human plasma assessed as formation of 4-((3(2-hydroxyphenyl)-4-oxo-2-(propylimino)thiazolidin-5-ylidene)methyl)benzoic acid at 37 degC. It counts as ADME, cell-free.
A further series concerns Homo sapiens. The series is described as follows: Antiinflammatory activity in psoriasis patient assessed as incident of 75% reduction in psoriasis area and severity index score at 40 mg, po dosed daily during phase 2 study for 28 weeks. It counts as functional. Details: scale not given: the % may be the effect or the level left.

Structures are written as SMILES. Where only a bound is given, the exact number is not on record here.

Chain of Sphingosine 1-phosphate receptor 1 (P21453 whole entry): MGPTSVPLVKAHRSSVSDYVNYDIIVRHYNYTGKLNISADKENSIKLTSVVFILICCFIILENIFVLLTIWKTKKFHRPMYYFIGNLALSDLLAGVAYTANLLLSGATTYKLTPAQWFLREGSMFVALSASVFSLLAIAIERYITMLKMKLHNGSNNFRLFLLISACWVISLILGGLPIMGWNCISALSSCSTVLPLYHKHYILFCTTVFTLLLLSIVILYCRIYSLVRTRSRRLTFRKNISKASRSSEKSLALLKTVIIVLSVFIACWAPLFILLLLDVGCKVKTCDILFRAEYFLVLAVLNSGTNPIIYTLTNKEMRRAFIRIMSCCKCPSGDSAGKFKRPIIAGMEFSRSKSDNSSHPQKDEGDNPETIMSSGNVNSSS

Regarding `CCC/N=C1\S/C(=C\c2ccc(C(=O)O)cc2)C(=O)N1c1ccccc1O`, in series [1], the IC50 – broadly, the midpoint of a concentration-inhibition curve – was over 1000 nM. In addition, the Drug metabolism result in series [2] was “Metabolite_Notdetected”. `CCC/N=C1\S/C(=C\c2ccc(C(=O)OCc3oc(=O)oc3C)cc2)C(=O)N1c1ccccc1O` had an IC50 in series [1] of over 1000 nM. In addition, the Drug metabolism result in series [3] is on record as “Metabolite_Detected”. As for `CCC/N=C1\S/C(=C\c2ccc(OC[C@H](O)CO)c(Cl)c2)C(=O)N1c1ccccc1C` [PONESIMOD], the Activity in the series on Homo sapiens is reported as 77%.

The values are drawn from ChEMBL document CHEMBL4265888, “Discovery of super soft-drug modulators of sphingosine-1-phosphate receptor 1” (Bioorg Med Chem Lett, 2018).
